Test results reported in PubChem BioAssay AID256 (DTP/NCI, 2004).
Where “and” joins values, the source holds several entries; their conditions need not be identical. Identical values can stand only once. Inconclusive results and toxic doses are left out. Non-standard residues stand in square brackets, D forms with d. Residues, ends and D or L forms follow the SMILES beside them. ξ: configuration not given here. ξF = NC(Cc1ccccc1)C(=O)O

Test system: CD2F1 mice, L1210 leukemia ip, survival T/C
Assay: NCI In Vivo Anticancer Drug Screen. Data for tumor model L1210 Leukemia (intraperitoneal) in CD2F1 (CDF1) mice
Details: higher = longer survival
Description: The antitumor activity of compounds was measured in mice bearing transplantable tumors. Survival or tumor size were measured and the results are expressed as the measurement made in the treated group (T) divided by the measurement made in the vehicle treated control group (C). The tumor model used in this assay is L1210 Leukemia (intraperitoneal) in CD2F1 (CDF1) mice

[1] = endpoint: mean survival time, dose: 6.25 mg/kg/injection, schedule: Q01DX009 (ip), vehicle: saline with Tween-80
[2] = endpoint: mean survival time, dose: 100.0 mg/kg/injection, schedule: Q04DX003 (ip), vehicle: saline with Tween-80
[3] = endpoint: mean survival time, dose: 200.0 mg/kg/injection, schedule: Q04DX003 (ip), vehicle: saline with Tween-80
[4] = endpoint: mean survival time, dose: 400.0 mg/kg/injection, schedule: Q04DX003 (ip), vehicle: saline with Tween-80
[5] = endpoint: mean survival time, dose: 100.0 mg/kg/injection, schedule: Q04DX002 (ip), vehicle: saline
[6] = endpoint: mean survival time, dose: 200.0 mg/kg/injection, schedule: Q04DX002 (ip), vehicle: saline
[7] = endpoint: mean survival time, dose: 400.0 mg/kg/injection, schedule: Q04DX002 (ip), vehicle: saline
[8] = endpoint: mean survival time, dose: 100.0 mg/kg/injection, schedule: Q01DX001 (ip), vehicle: saline with Tween-80
[9] = endpoint: mean survival time, dose: 200.0 mg/kg/injection, schedule: Q01DX001 (ip), vehicle: saline with Tween-80
[10] = endpoint: mean survival time, dose: 400.0 mg/kg/injection, schedule: Q01DX001 (ip), vehicle: saline with Tween-80
[11] = endpoint: mean survival time, dose: 100.0 mg/kg/injection, schedule: Q01DX009 (ip), vehicle: saline with Tween-80
[12] = endpoint: mean survival time, dose: 200.0 mg/kg/injection, schedule: Q01DX009 (ip), vehicle: saline with Tween-80
[13] = endpoint: mean survival time, dose: 400.0 mg/kg/injection, schedule: Q01DX009 (ip), vehicle: saline with Tween-80
[14] = endpoint: mean survival time, dose: 100.0 mg/kg/injection, schedule: Q01DX001 (ip), vehicle: saline

O=C(O)c1ccccc1N(CCO)CCCl was tested, and the T/C (endpoint: mean survival time, dose: 3.13 mg/kg/injection, schedule: Q01DX009 (ip), vehicle: saline with Tween-80) was 121 % of control and 110 % of control, the T/C [1] was 119 % of control and the T/C (endpoint: mean survival time, dose: 10.0 mg/kg/injection, schedule: Q01DX009 (ip), vehicle: Klucel (hydroxypropylcellulose) (HPC)) was 186 % of control.

Cc1oc2ncnc(N)c2c1C was tested, and the T/C [2] was 96 % of control, the T/C [3] was 100 % of control and the T/C [4] was 95 % of control.

COC(=O)C(C)S(=O)(=O)O (stereo unspecified) was tested, and the T/C [5] was 106 % of control, the T/C [6] was 106 % of control and the T/C [7] was 95 % of control.

In the case of C/C(=N\N=C(/C)c1cccs1)c1cccs1, the T/C (endpoint: median survival time, dose: 25.0 mg/kg/injection, schedule: Q04DX002 (ip), vehicle: saline with Tween-80) is reported as 90 % of control, the T/C (endpoint: median survival time, dose: 50.0 mg/kg/injection, schedule: Q04DX002 (ip), vehicle: saline with Tween-80) is reported as 90 % of control and the T/C (endpoint: median survival time, dose: 100.0 mg/kg/injection, schedule: Q04DX002 (ip), vehicle: saline with Tween-80) is reported as 100 % of control. For the same compound, the T/C (endpoint: median survival time, dose: 200.0 mg/kg/injection, schedule: Q04DX002 (ip), vehicle: saline with Tween-80) was 90 % of control.

In the case of COc1ccc(OCCCn2cc(-c3ccc(Cl)c(Cl)c3)c(N)nc2=O)cc1, the T/C [2] is reported as 97 % of control, the T/C [3] is reported as 92 % of control and the T/C [4] is reported as 94 % of control.

With Clc1ccc(/C=N/N=C/c2ccc(Cl)cc2Cl)c(Cl)c1 the T/C (endpoint: mean survival time, dose: 100.0 mg/kg/injection, schedule: Q01DX001 (ip), vehicle: Klucel (hydroxypropylcellulose) (HPC)) was 95 % of control, the T/C (endpoint: mean survival time, dose: 200.0 mg/kg/injection, schedule: Q01DX001 (ip), vehicle: Klucel (hydroxypropylcellulose) (HPC)) was 89 % of control and the T/C (endpoint: mean survival time, dose: 400.0 mg/kg/injection, schedule: Q01DX001 (ip), vehicle: Klucel (hydroxypropylcellulose) (HPC)) was 103 % of control.

In the case of c1ccc(N=N/C(=N/Nc2ccccc2)c2ccccc2)cc1, the T/C [1] is reported as 104 % of control, the T/C (endpoint: mean survival time, dose: 12.5 mg/kg/injection, schedule: Q01DX009 (ip), vehicle: saline with Tween-80) is reported as 101 % of control and the T/C (endpoint: mean survival time, dose: 25.0 mg/kg/injection, schedule: Q01DX009 (ip), vehicle: saline with Tween-80) is reported as 98 % of control.

For CCCCCCCCCCCCCCCCOc1ccc(OCCCCCCCCCCCCCCC)cc1, the T/C [8] was 88 % of control, the T/C [9] was 89 % of control and the T/C [10] was 88 % of control.

COC(=O)C(Cc1c[nH]c2ccccc12)NC(=O)C(Cc1c[nH]c2ccccc12)NC(=O)OC(C)(C)C (stereo unspecified) was tested, and the T/C [8] was 87 % of control, the T/C [11] was 98 % of control and the T/C [9] was 96 % of control. For the same compound, the T/C [12] was 96 % of control, the T/C [10] was 100 % of control and the T/C [13] was 104 % of control.

For CC1SCCS1, the T/C [8] was 95 % of control, the T/C [9] was 105 % of control and the T/C [10] was 100 % of control.

With C=CC(O)Cc1ccccc1 (stereo unspecified) (tested in a mixture with another compound) the T/C (endpoint: mean survival time, dose: 75.0 mg/kg/injection, schedule: Q01DX009 (ip), vehicle: saline) was 98 % of control, the T/C (endpoint: mean survival time, dose: 150.0 mg/kg/injection, schedule: Q01DX009 (ip), vehicle: saline) was 101 % of control and the T/C (endpoint: mean survival time, dose: 300.0 mg/kg/injection, schedule: Q01DX009 (ip), vehicle: saline) was 107 % of control.

C[C@]12CC[C@@H]3c4ccc(OC5CCCCO5)cc4CC[C@H]3[C@@H]1CC[C@@H]2O (stereo partly specified) was tested, and the T/C (endpoint: mean survival time, dose: 600.0 mg/kg/injection, schedule: Q01DX Z (ip), vehicle: steriod suspending solution) was 108 % of control and the T/C (endpoint: mean survival time, dose: 800.0 mg/kg/injection, schedule: Q01DX Z (ip), vehicle: steriod suspending solution) was 101 % of control.

For CCC(/C=N\O)CC, the T/C [14] was 100 % of control and the T/C (endpoint: mean survival time, dose: 200.0 mg/kg/injection, schedule: Q01DX001 (ip), vehicle: saline) was 108 % of control.

For c1ccc2c(c1)Nc1ccncc1S2, the T/C [2] was 94 % of control, the T/C [3] was 96 % of control and the T/C [4] was 112 % of control.

In the case of CC(C)(CO)CBr, the T/C [11] is reported as 95 % of control, the T/C [2] is reported as 95 % of control and the T/C [12] is reported as 102 % of control. The T/C [3] was 97 % of control, the T/C [13] was 98 % of control and the T/C [4] was 95 % of control.

With NC1=NC(CCc2ccccc2)N(c2ccc3ccccc3c2)C(N)=N1 (stereo unspecified) the T/C (endpoint: mean survival time, dose: 4.7 mg/kg/injection, schedule: Q04DX003 (ip), vehicle: saline) was 104 % of control, the T/C (endpoint: mean survival time, dose: 9.4 mg/kg/injection, schedule: Q04DX003 (ip), vehicle: saline) was 100 % of control and the T/C (endpoint: mean survival time, dose: 18.8 mg/kg/injection, schedule: Q04DX003 (ip), vehicle: saline) was 100 % of control.

For C[n+]1cccc2cccc(C(=O)O)c21, the T/C (endpoint: mean survival time, dose: 37.5 mg/kg/injection, schedule: Q01DX009 (ip), vehicle: saline with Tween-80) was 112 % of control, the T/C (endpoint: mean survival time, dose: 75.0 mg/kg/injection, schedule: Q01DX009 (ip), vehicle: saline with Tween-80) was 109 % of control and the T/C (endpoint: mean survival time, dose: 150.0 mg/kg/injection, schedule: Q01DX009 (ip), vehicle: saline with Tween-80) was 107 % of control.

OCC1OC(n2cnc3cc(Cl)c(Cl)cc32)C(O)C1O (stereo unspecified) was tested, and the T/C (endpoint: median survival time, dose: 25.0 mg/kg/injection, schedule: Q01DX009 (ip), vehicle: saline with Tween-80) was 97 % of control and 103 % of control, the T/C (endpoint: median survival time, dose: 50.0 mg/kg/injection, schedule: Q01DX009 (ip), vehicle: saline with Tween-80) was 106 % of control and the T/C (endpoint: median survival time, dose: 100.0 mg/kg/injection, schedule: Q01DX009 (ip), vehicle: saline with Tween-80) was 120 % of control and 110 % of control and 112 % of control. The T/C (endpoint: median survival time, dose: 200.0 mg/kg/injection, schedule: Q01DX009 (ip), vehicle: saline with Tween-80) was 120 % of control.

With NCC(=O)NC(Cc1ccccc1)C(=O)O (stereo unspecified) (H-Gly-[ξF]-OH) the T/C (endpoint: mean survival time, dose: 50.0 mg/kg/injection, schedule: Q01DX009 (ip), vehicle: saline with Tween-80) was 102 % of control, the T/C [11] was 100 % of control and the T/C [12] was 100 % of control.

In the case of CCC12CN3CCc4c([nH]c5ccccc45)C(C(=O)OC)(c4cc5c(cc4OC)N(C)C4C(O)(C(=O)OC)C(OC(C)=O)C6(CC)C=CCN7CCC54C76)CC(C3)C1O2.CI.CO.[I][Hg][I] (stereo unspecified), the T/C [14] is reported as 100 % of control.

For O=c1[nH]c(-c2ccccc2)nc(-c2ccc(Cl)cc2)c1CCO, the T/C [11] was 95 % of control, the T/C [12] was 91 % of control and the T/C [3] was 91 % of control. For the same compound, the T/C [13] was 96 % of control and the T/C [4] was 86 % of control.

CC(=O)N(C)N=Nc1ccc(C(C)C)cc1 was tested, and the T/C (endpoint: mean survival time, dose: 9.37 mg/kg/injection, schedule: Q04DX003 (ip), vehicle: Klucel (hydroxypropylcellulose) (HPC)) was 97 % of control, the T/C (endpoint: median survival time, dose: 2.3 mg/kg/injection, schedule: Q01DX009 (ip), vehicle: Klucel (hydroxypropylcellulose) (HPC)) was 116 % of control and the T/C (endpoint: median survival time, dose: 4.6 mg/kg/injection, schedule: Q01DX009 (ip), vehicle: Klucel (hydroxypropylcellulose) (HPC)) was 110 % of control. The T/C (endpoint: median survival time, dose: 9.37 mg/kg/injection, schedule: Q01DX009 (ip), vehicle: Klucel (hydroxypropylcellulose) (HPC)) was 116 % of control.

With COP(=O)(NC(C)=O)OC the T/C (endpoint: mean survival time, dose: 50.0 mg/kg/injection, schedule: Q04DX002 (ip), vehicle: saline) was 87 % of control, the T/C [5] was 93 % of control and the T/C [6] was 93 % of control. For the same compound, the T/C [7] was 96 % of control.

With CCOC(=O)c1ccc(NC(=O)N(CC)c2ccccc2)cc1 the T/C [11] was 96 % of control and 100 % of control, the T/C (endpoint: mean survival time, dose: 100.0 mg/kg/injection, schedule: Q04DX002 (ip), vehicle: saline with Tween-80) was 100 % of control and 109 % of control and the T/C [2] was 94 % of control. The T/C [12] was 95 % of control and 104 % of control, the T/C (endpoint: mean survival time, dose: 200.0 mg/kg/injection, schedule: Q04DX002 (ip), vehicle: saline with Tween-80) was 92 % of control and 102 % of control and the T/C [3] was 94 % of control. For the same compound, the T/C [13] was 96 % of control and 100 % of control, the T/C (endpoint: mean survival time, dose: 400.0 mg/kg/injection, schedule: Q04DX002 (ip), vehicle: saline with Tween-80) was 94 % of control and 98 % of control and the T/C [4] was 95 % of control.

With CCCCCC(C)C1=NC(C)(C)CC(C)O1 (stereo unspecified) the T/C (endpoint: mean survival time, dose: 5.0 mg/kg/injection, schedule: Q01DX009 (ip), vehicle: saline) was 94 % of control, the T/C (endpoint: mean survival time, dose: 10.0 mg/kg/injection, schedule: Q01DX009 (ip), vehicle: saline) was 95 % of control and the T/C (endpoint: mean survival time, dose: 20.0 mg/kg/injection, schedule: Q01DX009 (ip), vehicle: saline) was 97 % of control. The T/C [8] was 97 % of control and the T/C [9] was 93 % of control.
